According to paper PMC7058083, “Structural basis of ligand binding modes at the human formyl peptide receptor 2” (Nature Communications, 2020):
Residue numbers refer to the chain shown, from its start. Residues, ends and D or L forms follow the SMILES beside them. *: point of attachment. For = O=C*

Legend:
[1] = biological target: T1, wild-type (WT) and mutant FPR2 (Homo sapiens, UniProt P25090, N285A); test: Competition binding of fMLFK with WK(FITC)YMVm, flow cytometry on HEK293F cells; conditions: FPR2 N285A; mean ± s.e.m., n=3; SEM
T1 construct: expressed in transfected cells; host or cells: HEK293F
T1 sequence (P25090 1-351 N285A): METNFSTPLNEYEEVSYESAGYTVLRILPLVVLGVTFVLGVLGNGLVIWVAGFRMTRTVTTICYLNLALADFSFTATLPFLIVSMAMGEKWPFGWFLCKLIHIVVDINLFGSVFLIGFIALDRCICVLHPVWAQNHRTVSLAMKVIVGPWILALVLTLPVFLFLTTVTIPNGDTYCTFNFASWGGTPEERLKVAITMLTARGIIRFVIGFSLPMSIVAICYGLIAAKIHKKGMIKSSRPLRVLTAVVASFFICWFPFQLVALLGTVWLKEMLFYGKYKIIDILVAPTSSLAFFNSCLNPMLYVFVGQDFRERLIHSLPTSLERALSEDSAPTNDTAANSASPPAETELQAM
Description: (§1) Flag-tagged wild-type and mutant FPR2s were cloned into the pTT5 vector and expressed in HEK293F cells. The cells were harvested, and washed with Hanks’ Balanced Salt Solution (HBSS) buffer supplemented with 0.5% bovine serum albumin and 20 mM HEPES, pH 7.4. The cells were then resuspended in the same buffer to the final concentration of 1 × 10^6 cells per ml. The cell-surface expression was measured as mentioned above. […] Mean fluorescent intensity of each well was then read by a FCM (flow cytometry) reader (Millipore). […] For competitive binding of fMLFK, cells were plated in 96-well plates (100,000 cells per well), and incubated with WK(FITC)YMVm at 4 °C for 1 h. The following concentrations of WK(FITC)YMVm were used: 10 nM (wild type, L81^2.60F, E89G, and V105^3.32A), 30 nM (D281^7.32G), 40 nM (H102^3.29F, V160^4.60A, L268^ECL3A, N285^7.36A, and F292^7.43A), and 100 nM (L164^4.64A and T177A). Then increasing concentrations of fMLFK (100 nM–1 mM) were added, and incubated for another 1 h on ice. Mean fluorescent intensity values were measured by flow cytometry. Data were analyzed using Prism 7.0.

[2] = biological target: T2, wild-type (WT) and mutant FPR2 (Homo sapiens, UniProt P25090, L268A); test: as above; conditions: FPR2 L268A; mean ± s.e.m., n=3; SEM
T2 construct: expressed in transfected cells; host or cells: HEK293F
T2 sequence (P25090 1-351 L268A): T1 sequence (P25090 1-351 N285A) with L268A, A285N
Description: as §1

[3] = biological target: T3, wild-type (WT) and mutant FPR2 (Homo sapiens, UniProt P25090, V105A); test: as above; conditions: FPR2 V105A; mean ± s.e.m., n=3; SEM
T3 construct: expressed in transfected cells; host or cells: HEK293F
T3 sequence (P25090 1-351 V105A): T1 sequence (P25090 1-351 N285A) with V105A, A285N
Description: as §1

[4] = biological target: T4, wild-type (WT) and mutant FPR2 (Homo sapiens, UniProt P25090, F5A); test: Saturation binding of WK(FITC)YMVm, flow cytometry on HEK293F cells; conditions: FPR2 F5A
T4 construct: expressed in transfected cells; host or cells: HEK293F
Description: as §1

[5] = biological target: T5, wild-type (WT) and mutant FPR2 (Homo sapiens, UniProt P25090, L81F); test: as above; conditions: FPR2 L81F
T5 construct: expressed in transfected cells; host or cells: HEK293F
T5 sequence (P25090 1-351 L81F): T1 sequence (P25090 1-351 N285A) with L81F, A285N
Description: as §1

[6] = biological target: T1, wild-type (WT) and mutant FPR2; test: as above; conditions: FPR2 N285A
Description: as §1

[7] = biological target: T6, wild-type (WT) and mutant FPR2 (Homo sapiens, UniProt P25090, L198A); test: as above; conditions: FPR2 L198A
T6 construct: expressed in transfected cells; host or cells: HEK293F
Description: as §1

[8] = biological target: T7, wild-type (WT) and mutant FPR2 (Homo sapiens, UniProt P25090); test: as above; conditions: FPR2 WT
T7 construct: expressed in transfected cells; host or cells: HEK293F
T7 sequence (P25090 1-351): T1 sequence (P25090 1-351 N285A) with A285N
Description: as §1

T4 sequence (P25090 whole entry F5A): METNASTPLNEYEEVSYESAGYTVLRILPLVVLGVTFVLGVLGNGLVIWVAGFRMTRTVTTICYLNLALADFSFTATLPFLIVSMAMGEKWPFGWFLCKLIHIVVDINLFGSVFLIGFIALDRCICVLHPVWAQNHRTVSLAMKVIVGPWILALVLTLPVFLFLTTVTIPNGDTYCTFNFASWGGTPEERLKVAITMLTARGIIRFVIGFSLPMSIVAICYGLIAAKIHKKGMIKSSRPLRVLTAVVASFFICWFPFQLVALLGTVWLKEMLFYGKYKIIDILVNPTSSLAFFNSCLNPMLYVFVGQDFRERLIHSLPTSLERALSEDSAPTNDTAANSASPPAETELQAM
T6 sequence (P25090 whole entry L198A): as the sequence (P25090 whole entry F5A) above, with A5F, L198A counted along it

Compound	pKi, competition binding [1]	pKi, competition binding [2]	pKi, competition binding [3]	Span (% of WT), saturation binding [4]	Kd ([4]; mean ± s.e.m., n=3, SEM)	Span (% of WT), saturation binding [5]	Kd ([5]; mean ± s.e.m., n=3, SEM)	Span (% of WT), saturation binding [6]	Kd ([6]; mean ± s.e.m., n=4, SEM)	Span (% of WT), saturation binding [7]	Kd ([7]; mean ± s.e.m., n=3, SEM)	Span (% of WT), saturation binding [8]	Kd ([8]; mean ± s.e.m., n=3, SEM)
CSCC[C@H](NC=O)C(=O)N[C@@H](CC(C)C)C(=O)N[C@@H](Cc1ccccc1)C(=O)N[C@@H](CCCCN)C(=O)O [fMLFK] (For-MLFK-OH)	3.75 ± 0.16	4.42 ± 0.15	4.56 ± 0.21	–	–	–	–	–	–	–	–	–	–
CSCC[C@H](NC(=O)[C@H](Cc1ccc(O)cc1)NC(=O)[C@H](CCCCNC(=S)Nc1ccc2c(c1)C(=O)OC21c2ccc(O)cc2Oc2cc(O)ccc21)NC(=O)[C@@H](N)Cc1c[nH]c2ccccc12)C(=O)N[C@H](C(=O)N[C@H](CCSC)C(N)=O)C(C)C [WK(FITC)YMVm]	–	–	–	62 ± 7 % of WT	15.1 ± 7.4 nM	42 ± 4 % of WT	24.3 ± 8.4 nM	85 ± 13 % of WT	43.3 ± 15.3 nM	84 ± 14 % of WT	41.5 ± 10.0 nM	100 % of WT	24.0 ± 8.5 nM
